Key:
Kv 1.5-potassium channel = molecular target: T1, Kv 1.5-potassium channel (Homo sapiens, UniProt P22460); experiment: In-vitro Kv 1.5-potassium channel-blocking effect (Rb+ outflow from CHO cells, atomic absorption spectroscopy); assay type: cell-based; details: CHO cells stably expressing Kv 1.5, read-out: IC50 (Kv1.5-potassium channel-blocking effect, concentration of half-maximum inhibition)
T1 construct: expressed in transfected cells
Protocol: 1. In-Vitro Investigation of the Kv 1.5-Potassium Channel-Blocking Effect of the Substances
In this test model, a cell line of egg cells of the Chinese hamster (=“Chinese hamster oocytes”, “CHO”) is used which originates from a single cell and stably expresses the Kv 1.5-channel. By incubation overnight in a nutrient medium containing RbCl or a “loading buffer” (all values in mM: RbCl 5, NaCl 140, CaCl2 2, MgSO4 1, HEPES buffer 10, glucose 5) the aforementioned oocytes are loaded with Rb^+ under the influence of Na^+/K^+-ATPase. Thereafter, a portion of the oocytes is incubated as a reference standard in the absence of an inhibitor, while another portion of the oocytes is incubated in the presence of the respective inhibitory test substance of Formula I. Then the oocytes are depolarized by increasing the extracellular potassium-ion concentration, which causes the Kv 1.5-potassium channels of the oocytes to open. In the absence of an inhibitor, the Rb^+ ions flow through the Kv 1.5-potassium channels into the liquid surrounding them. In the presence of an inhibitory test substance of Formula I, on the other hand, the Rb^+ ions remain locked within the oocytes. The extent of the Kv 1.5-potassium channel-blocking effect of the test substances of Formula I is determined by measuring the Rb^+ ion concentration in the liquid surrounding them by means of atomic absorption spectroscopy against a reference standard.
Chinese hamster oocytes (see above) were cultivated in a known, RbCl-containing nutrient medium for CHO-cells and placed in the sample wells of a 96-sample capacity sample plate (“96 well plate”). The oocytes were allowed to grow overnight in order to obtain monolayers of the oocytes. Then the nutrient medium was pipetted off, and each sample well was washed three times with 100 μl portions of a preincubation buffer of low potassium-ion concentration (all values in mM: KCl 5, NaCl 140, CaCl2 2, MgSO4 1, HEPES buffer 10, glucose 5). Then 50 μl of a solution of the respective test substance (stock solution in DMSO, dilution with preincubation buffer, final concentration in the test batch 10 μM) or of the solvent (as negative controls) was added to each sample well and incubated for 10 min. in each case at room temperature. Then 50 μl of a stimulation buffer with elevated potassium-ion concentration (KCl 145 mM, NaCl 0 mM, otherwise as preincubation buffer) was added to each sample well and the samples were then incubated for a further 10 min. at room temperature. In each case, 80 μl of the liquid surrounding the oocytes from each sample well was then transferred separately to the sample wells of an analysis sample plate, and the Rb^+ ion concentration in the liquids was determined by atomic absorption spectroscopy. The test substances were each double-tested. The signal section which represented the Kv 1.5 component of the Rb^+ outflow was defined by using as positive control the known potassium channel blocker 4-AP in a high concentration (100×IC50 for the Kv 1.5 channel). This made it possible to determine which portion of the Rb^+ outflow was dependent on the influence of the 4-AP and therefore is to be assigned to the Kv 1.5 channel. For the substances which in the concentration of 10 μM used led to a reduction in the Rb^+ outflow of at least 50%, additional tests were performed with lower concentrations of the test substances in order to be able to determine the half-maximum effective concentration. In each case the concentration of half-maximum inhibition of the test substances of Formula I (IC50) was given as characteristic variable.

ventricle of guinea pigs = experiment: Functional effectiveness on guinea-pig hearts in vivo (ERP, QT, QRS, systolic blood pressure); design: species or system guinea pig (Dunkin-Hartley); details: 1 min. after 10 μmole/kg i.v.; for QRS / QT / syst. blood pressure (change): guinea pigs; for syst. blood pressure (change): minus effects due to the vehicle, negative values indicate reduction; for ERP: ventricle of guinea pigs, negative values indicate shortening
Description: 4. Investigation of the Functional Effectiveness of the Substances on Guinea-Pig Hearts in Vivo
In the test model shown below, it was shown that the substances according to the invention at most have slight undesirable proarrhythmic effects on repolarization in the ventricle. To this end, the influence of the compounds of Formula I on the effective refractory period (ERP) and other influencing variables on guinea-pig hearts in vivo were investigated. In this test model, non-selective potassium channel blockers not in accordance with the invention, which also block HERG and/or KvLQT1 channels, result in undesirable prolongation of the ERP and the QT time on an electrocardiogram (═ECG). The QT time is likewise a measurement of the repolarization in the heart. Prolongations of both the ERP and the QT time, respectively, which are due to the substances were independently interpreted as indications of the risk of the occurrence of undesirable torsade-de-pointes arrhythmias. Furthermore, the QRS interval also was determined in each case from the ECG as a measurement of the ventricular rate of spread of stimulus. Even a prolongation of the QRS interval caused by a test substance is connected with an increased risk of undesirable pro-arrhythmic side-effects. Therefore in this test model the lack of an ERP and QT time prolongation signifies a low risk, but the occurrence of a relevant ERP and QT prolongation on the other hand signifies an elevated risk of undesirable pro-arrhythmic effects. Also the lack of a prolongation of the QRS interval which is due to the substances due to the substances of Formula I investigated indicates a low risk of undesirable pro-arrhythmic side-effects, since lack of QRS prolongation indicates an undisturbed spread of stimulus in the ventricle. Conversely, a QRS prolongation, which is typically triggered by Class I antiarrhythmic drugs indicates slowing of the conduction rate and may promote the occurrence of ventricular tachycardias to ventricular fibrillation.
Male guinea pigs (Dunkin-Hartley from Charles River) were anaesthetized (ketamine 50 mg/kg, xylazine 10 mg/kg) and each of them was provided with a venous access via one jugular vein for administration of compounds of Formula I or a vehicle. A bipolar stimulation catheter was fed into the right ventricle of the guinea pigs via the other jugular vein (stimulation frequency 5 Hz). The arterial blood pressure was measured by a catheter located in the carotid artery which was connected to a Statham pressure transducer. The ECG was recorded via needle electrodes. The measured data were digitized via an analog/digital converter, recorded on a computer with suitable software (Ponemah Physiology Platform from Gould, USA) and printed out in parallel on a multichannel printer. After an equilibration period of 45 min., increasing doses of the compounds of Formula I or of the vehicle were administered intravenously (=i.v.) to the guinea pigs at 12-minute intervals. Before the first administration and in each case one minute after administration of increasing doses (0.1−max. 30 μmole/kg) of the substances of Formula I, the effective refractory period was measured. For this, after five normal stimuli in each case an additional pulse was applied and the elapsed time thereof from the preceding pulse was increased until a heart action was triggered. The observed time interval corresponds to the ERP of the ventricular myocardium.
In order to detect possible effects of the test substances on the blood pressure, in the same test model after each administration of substance the systolic and diastolic blood pressure was determined and compared with the previous blood-pressure level. The parameters were recorded automatically 1 and 8 min. after each administration of substance.
Only statistically significant effects were listed, with a t-test with a significance limit of P<0.05 being used for the statistical testing.

T1 sequence (P22460 whole entry): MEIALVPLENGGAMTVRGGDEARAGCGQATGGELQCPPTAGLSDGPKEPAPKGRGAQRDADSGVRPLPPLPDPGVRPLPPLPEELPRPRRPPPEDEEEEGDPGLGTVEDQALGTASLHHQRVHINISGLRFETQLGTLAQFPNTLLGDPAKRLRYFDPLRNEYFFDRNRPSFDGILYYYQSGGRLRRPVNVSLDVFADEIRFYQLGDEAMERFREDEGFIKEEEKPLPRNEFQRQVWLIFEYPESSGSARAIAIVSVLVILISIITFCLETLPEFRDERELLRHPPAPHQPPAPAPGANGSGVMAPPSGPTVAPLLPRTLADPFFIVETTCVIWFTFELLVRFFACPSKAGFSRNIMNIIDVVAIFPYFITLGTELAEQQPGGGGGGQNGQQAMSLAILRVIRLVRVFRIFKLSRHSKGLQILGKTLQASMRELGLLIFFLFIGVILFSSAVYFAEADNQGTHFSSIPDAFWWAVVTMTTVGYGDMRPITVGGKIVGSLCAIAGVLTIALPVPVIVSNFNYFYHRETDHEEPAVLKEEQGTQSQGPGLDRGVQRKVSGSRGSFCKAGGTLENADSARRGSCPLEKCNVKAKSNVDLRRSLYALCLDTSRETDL

Compound | IC50 (Kv 1.5-potassium channel) | QRS (ventricle of guinea pigs) | QT (ventricle of guinea pigs) | syst. blood pressure (change) (ventricle of guinea pigs) | ERP (ventricle of guinea pigs)
CCc1ccc(S(=O)(=O)N(CC(C)(C)C)[C@@H]2c3cc(CC(=O)NCc4ccccc4)ccc3OC(C)(C)[C@H]2O)cc1 [Example 7] | 1500 nM | n.s. | n.s. | −15.3 mm Hg | -8.2 ms
CCc1ccc(S(=O)(=O)N[C@@H]2c3cc(CC(=O)N[C@@H]4CCCc5ccccc54)ccc3OC(C)(C)[C@H]2O)cc1 [Example 2, 2-((3S,4R)-4-{[(4-ethylphenyl)sulfonyl]amino}-3-hydroxy-2,2-dimethyl-3,4-dihydro-2H-chromen-6-yl)-N-[(1R)-1,2,3,4-tetrahydronaphth-1-yl]acetamide] | 2000 nM | n.s. | n.s. | n.s. | n.s.
CCc1ccc(S(=O)(=O)N(CC(C)(C)C)C2c3cc(CC(=O)NCCc4ccccc4)ccc3OC(C)(C)C2O)cc1 (stereo not drawn) [Example 10] | 1600 nM | n.s. | n.s. | −15.9 mm Hg | -8.0 ms
CCc1ccc(S(=O)(=O)NC2c3cc(CC(=O)N4CCN(c5ccccc5)CC4)ccc3OC(C)(C)C2O)cc1 (stereo not drawn) [Example 16] | 6300 nM | n.s. | n.s. | −8.6 mm Hg | -7.5 ms
CCc1ccc(S(=O)(=O)N[C@@H]2c3cc(CC(=O)N[C@H]4CCCc5ccccc54)ccc3OC(C)(C)[C@H]2O)cc1 [Example 9] | 2900 nM |  |  |  | 
CCc1ccc(S(=O)(=O)N(CC(C)(C)C)C2c3cc(CC(=O)NCc4ccccc4)ccc3OC(C)(C)C2O)cc1 (stereo not drawn) [Example 4, N-benzyl-2-{4-[[(4-ethylphenyl)sulfonyl](neopentyl)amino]-3-hydroxy-2,2-dimethyl-3,4-dihydro-2H-chromen-6-yl}acetamide] | 1600 nM | n.s. | n.s. | n.s. | n.s.
CC1(C)Oc2ccc(CC(=O)NC3CCCc4ccccc43)cc2C(NS(=O)(=O)c2cccc(F)c2)C1O (mixture of isomers) [Example 13] | 6500 nM | n.s. | n.s. | n.s. | n.s.
CCc1ccc(S(=O)(=O)N(CC(C)(C)C)[C@H]2c3cc(CC(=O)NCc4ccccc4)ccc3OC(C)(C)[C@@H]2O)cc1 [Example 8] | 500 nM | n.s. | n.s. | −10.7 mm Hg | n.s.
